Earlier results as cited in patent US20240189233A1, “POWDERY PREPARATION AND METHOD FOR MANUFACTURING SAME” (ICHIMARU PHARCOS CO., LTD., priority 2021, published 2024).

Test system: human breast cancer cells
Details: Cheng W L et al. (2011)

C=C[C@H](O)C#CC#C[C@H](O)/C=C\CC/C=C\C [araliadiol]
growth inhibitory activity: growth inhibitory activity
